# Where “and” joins values, the source holds several entries; their conditions need not be identical. Identical values can stand only once.
# Key:
# [1] = tested on: MCF7/ADR cells; assay: MTT cytotoxicity and drug accumulation in doxorubicin resistant MCF7/ADR cells; assay type: cell-based; conditions: for IC50: Homo sapiens, NCI/ADR-RES, 48 h, MCF7/ADR, 48 hrs exposure, MTT
# Procedure: In some embodiments, monolayer doxorubicin sensitive (MCF7) and resistant (MCF7/ADR) cells were then exposed to either doxorubicin or TAT-Dox conjugates at various concentrations (up to 100 μM) for 48 hrs in the presence or absence of 10 μM verapamil. Cell viability was measured by MTT assay. […] Verapamil, a P-glycoprotein inhibitor, was able to restore most of the cytotoxic activities of free doxorubicin.
# [2] = oral administration; cited from earlier work
# [3] = tested on: implanted tumors; assay: Tumor regression in tumor-bearing mice, intratumoral injection (RNase series); assay type: in vivo; conditions: excised thirty days (4 weeks) after initial treatment
# Procedure: Drugs were administered by intratumoral injection. Injections were started 3 weeks after tumor cell implantation when tumors reached the size about 100 mm^3. Thirty days after initial treatment, mice were sacrificed and their tumors were excised, weighed, and photographed.
# For example, in test animals an average tumor weight of 2.92±0.47 g (N=5) was observed 4 weeks after treatment (Lane 4; FIG. 11B) that was statistically indistinguishable from the value of 3.16±0.65 g (Lane 2 in FIG. 11B) of the control group without treatment. […] The addition of protamine to the heparin-inhibited TAT-RNase conjugates completely reversed inhibition and tumor growth was regressed to an insignificant weight of 0.09±0.05 g (Lane 5; FIG. 11B).
# [4] = tested on: MCF-7 cells; assay: Cell translocation and uptake kinetics of FITC-labeled LMWP and TAT; assay type: cell-based
# Procedure: Cells were incubated with the FITC-labeled peptides and then lysed. Fluorescence intensities in the supernatants were measured.
# In some embodiments, purified LMWP was prepared according to the method described in L.C. Chang et al., AAPS PharmSci., 3(2) Article 17 [2001]. In some additional embodiments, cell internalization characteristics of TAT and LMWP were compared by confocol microscopy using FITC-labeled peptides. Like TAT, after 15 min of incubation with MCF-7 cells at 37° C., more than 70% of the FITC-labeled LMWP entered the cytosol of the MCF-7 cells (FIG. 13). […] The reason for the difference in cell localization remains unclear, however, while the present invention is not limited to any particular mechanism, it is contemplated that TAT, which contains the sequence of the nuclear localization signal (NLS) peptide, can penetrate into the cell's nucleus either through pores on the nuclear envelope, or via binding with certain cytoplasmic components which confer nuclear localization. (L. Chaloin et al., Biochem. Biophys. Res. Commun., 243:601-608 [1998]; and M. A. Zanta M A et al., Proc. Natl. Acad. Sci. USA, 96:91-96 [1999]). In some embodiments, the localization of TAT and TAT-like peptides can be directed to the cytoplasm or to other sites within the cell by making altering portions of its amino acid sequence. (See e.g., M. M. Gottesman et al., Nature Reviews Cancer, 2:48-58 [2002]). In some preferred embodiments, the sequence of the PTD component/subcomponent of the drug delivery composition is selected or modified (e.g., amino acid sequence altered) so that the composition and the therapeutic molecule(s) being carried are localized to the cytoplasm. The present invention contemplates that in certain embodiments the localization of the drug delivery compositions to the cytoplasm aids in the penetration of the therapeutic molecules throughout the targeted tissue (e.g., from the tumor periphery to the tumor core).
# FIG. 14 provides a comparison of the rate of cellular uptake of LMWP and TAT. […]
# [5] = tested on: CT-26 cells; assay: Translocation of rhodamine-labeled gelonin by TAT or LMWP (fluorescence microscopy); assay type: cell-based; conditions: CT-26, 2 hrs incubation
# Procedure: FIGS. 15A and 15B show the translocation of gelonin into the CT-26 cells with the aid of: TAT (FIG. 15A); or LMWP (FIG. 15B). Fluorescent microscopy was conducted on cells treated with rhodamine-labeled TAT- or LMWP-gelonin following 2 hrs of incubation in CT-26 cells.
# In some embodiments, studies were preformed to compare the capabilities of LMWP and TAT in protein translocation. In some of these embodiments, the LMWP and TAT peptides were conjugated to gelonin using the PDPH method described herein. To create a -SH group for coupling, LMWP was modified prior to its conjugation by treatment with SPDP and DTT, using the protocol established by J. Carlsson et al., (J. Carlsson et al., Biochem. J., 173:723-737 [1978]). Gelonin was labeled with rhodamine prior to conjugation.
# [6] = tested on: murine tumor tissues; assay: Tumor penetration of rhodamine-labeled gelonin and TAT-Gel; assay type: in vivo, mice; conditions: tumors isolated at 10 hrs after injection
# Excerpt: FIGS. 18A and 18B show tumor penetration of rhodamine-labeled TAT-Gel conjugates (FIG. 18A), and free gelonin (FIG. 18B). Tumors were isolated at 10 hrs after injection of the rhodamine-labeled TAT-Gel conjugate or free gelonin and then photographed.
# To further confirm that TAT-Gel conjugates penetrate into tumor tissues, rhodamine-labeled gelonin was used in several additional in vivo studies. […] The extremely efficient tumor penetration and widespread drug distribution capabilities of the compositions and methods of the present invention are of great significance to anticancer therapy.
# [7] = tested on: CT-26 murine adenocarcinoma colon cancer cells; assay: MTT cytotoxicity in CT-26 cells in log-phase culture; assay type: cell-based; conditions: CT-26, MTT
# Procedure: Various doses of each test compound were added to 96-well culture plates containing approximately 5,000 cells/well. The plates were incubated for 48 hrs at 37° C. under an atmosphere of 5% CO2 in humidified air. Remaining cells were assessed using MTT and compared to untreated control wells. Values shown are means±standard deviation.
# Cytotoxicity was measured as described in FIG. 8.
# Various doses of each compound were added to 96-well culture plates containing approximately 5,000 cells/well. The plates were incubated for 48 hrs at 37° C. under an atmosphere of 5% CO2 in humidified air in an incubator. Test cells were assessed by MTT assay and then compared to untreated cells in control wells. Values are represented as means±standard deviation. Each experiment was performed in triplicate.
# In additional embodiments, the cytotoxicity of gelonin and the TAT-Gel conjugates were examined in CT-26 murine adenocarcinoma colon cancer cells in log-phase culture.
# [8] = tested on: CT26 colon carcinoma; assay: Tumor regression in CT-26 tumor-bearing mice, intratumoral injection (gelonin series); assay type: in vivo, BALB/c mice
# [9] = tested on: MCF-7 cells; assay: Cellular uptake of FITC-labeled gelonin and TAT-Gel (FACS and confocal microscopy); assay type: cell-based; conditions: MCF-7, FITC label, 10 nM, 1 hr at 37° C.
# Procedure: FIGS. 7A-7D show the cellular uptake of TAT and TAT-Gel conjugates into MCF-7 cells. The left two panels provide confocol microphotograph sections of DIC image and corresponding fluorescent images, whereas right panels show FACS results (ordinate, number of cells, abcissa, fluorescent intensity). Cells were treated with FITC-labeled gelonin (FIG. 7A); TAT-Gel (FIG. 7B); TAT-Gel+heparin (FIG. 7C); and TAT-Gel+heparin and then+protamine (FIG. 7D). Protein concentration was adjusted to 10 nM, and the incubation time was 1 hr at 37° C.
# In certain embodiments, the TAT-mediated cell internalization and the cytotoxicity of TAT-Gel were examined in vitro in MCF-7 and CT-26 cell cultures. The membrane-transducing ability of the TAT-Gel conjugates was determined using fluorescence (FITC)-labeled gelonin or TAT-Gel added to the culture media of MCF-7 cells, followed by analysis by both the fluorescence activated cell sorting (FACS) and confocol microscopy. […] On the other hand, almost all of the FITC labels were found inside, and specifically inside the cytosol (see confocol results), of all (˜100%) cells (see the FACS data) within one hour of incubation of the cells with the TAT-Gel conjugates (FIG. 7B). Considering the fact that gelonin exerts its cytotoxic activity via binding with ribosomes and cleaving RNA, this cytosolic localization actually yields beneficial therapeutic affects. […]
compound,measurement,setting,value
"COc1cccc2c1C(=O)c1c(O)c3c(c(O)c1C2=O)C[C@@](O)(C(=O)CO)C[C@@H]3O[C@H]1C[C@H](N)[C@H](O)[C@H](C)O1 [Dox, doxorubicin]",IC50,[1]; Verapamil (10 μM),6.7 µM
same,IC50,[1]; without verapamil,45.2 µM
same,IC50 of free doxorubicin relative to Dox-TAT conjugates,[1]; MCF7/MDR cells,~8 fold
same,amount of doxorubicin seen in cells by fluorescence microscopy,[1]; MDR cells,negligible amount
"N[C@@H](Cc1ccc(O)c(O)c1)C(=O)O [levodopa, L-3,4-dihydroxy-phenylalanine]",fraction that penetrates the CNS,[2],less than 1%
RNase,average tumor mass,[3],2.92 ± 0.47 g
TAT: highly cationic 11 amino acid section of the TAT-peptide (YGRKKRRQRRR; SEQ ID NO:6),rate of cellular uptake (comparison in words),[4]; MCF-7,slightly faster cellular uptake than LMWP
same,incubation time at which cellular concentration reached a maximum,"[4]; MCF-7, FITC-labeled peptides",30 min
same,subcellular localization,"[4]; MCF-7, after 30 min incubation",primarily localizes in the nucleus
same,translocation of rhodamine-labeled gelonin into cells,[5],capable of translocating gelonin
gelonin,tumor penetration (rhodamine staining of excised tumor),[6],virtually no staining or only sporadic weak staining
same,cytotoxicity / inhibition of cell growth (in words),[7],did not induce cell death
same,cytotoxicity / inhibition of cell growth (in words),[7]; listed as Gelonin,did not display any detectable inhibition on cell growth
same,average tumor mass,"[8]; excised thirty days (four weeks) after initial treatment, intratumoral, 9 treatments",2.63 ± 0.5 g and 2.62 ± 0.53 g
same,gross appearance of tumor after treatment,[8]; two and four weeks after intratumoral injection,not cytotoxic to the tumor
same,"cellular uptake (confocal and FACS, in words)",[9],virtually no cellular uptake

# — patent publication US7329638B2, “Drug delivery compositions” (priority 2003, dated 2008)
